{
  "source": "patent US9938281B2",
  "about": "(Merck Sharp & Dohme Corp., priority 2012, dated 2018)",
  "key": {"[1]": {"target": "T1, PI3K-alpha (Homo sapiens, UniProt P42336)", "T1 construct": "purchased Upstate; Millipore 14-602", "T1 sequence (P42336 whole entry, canonical isoform)": "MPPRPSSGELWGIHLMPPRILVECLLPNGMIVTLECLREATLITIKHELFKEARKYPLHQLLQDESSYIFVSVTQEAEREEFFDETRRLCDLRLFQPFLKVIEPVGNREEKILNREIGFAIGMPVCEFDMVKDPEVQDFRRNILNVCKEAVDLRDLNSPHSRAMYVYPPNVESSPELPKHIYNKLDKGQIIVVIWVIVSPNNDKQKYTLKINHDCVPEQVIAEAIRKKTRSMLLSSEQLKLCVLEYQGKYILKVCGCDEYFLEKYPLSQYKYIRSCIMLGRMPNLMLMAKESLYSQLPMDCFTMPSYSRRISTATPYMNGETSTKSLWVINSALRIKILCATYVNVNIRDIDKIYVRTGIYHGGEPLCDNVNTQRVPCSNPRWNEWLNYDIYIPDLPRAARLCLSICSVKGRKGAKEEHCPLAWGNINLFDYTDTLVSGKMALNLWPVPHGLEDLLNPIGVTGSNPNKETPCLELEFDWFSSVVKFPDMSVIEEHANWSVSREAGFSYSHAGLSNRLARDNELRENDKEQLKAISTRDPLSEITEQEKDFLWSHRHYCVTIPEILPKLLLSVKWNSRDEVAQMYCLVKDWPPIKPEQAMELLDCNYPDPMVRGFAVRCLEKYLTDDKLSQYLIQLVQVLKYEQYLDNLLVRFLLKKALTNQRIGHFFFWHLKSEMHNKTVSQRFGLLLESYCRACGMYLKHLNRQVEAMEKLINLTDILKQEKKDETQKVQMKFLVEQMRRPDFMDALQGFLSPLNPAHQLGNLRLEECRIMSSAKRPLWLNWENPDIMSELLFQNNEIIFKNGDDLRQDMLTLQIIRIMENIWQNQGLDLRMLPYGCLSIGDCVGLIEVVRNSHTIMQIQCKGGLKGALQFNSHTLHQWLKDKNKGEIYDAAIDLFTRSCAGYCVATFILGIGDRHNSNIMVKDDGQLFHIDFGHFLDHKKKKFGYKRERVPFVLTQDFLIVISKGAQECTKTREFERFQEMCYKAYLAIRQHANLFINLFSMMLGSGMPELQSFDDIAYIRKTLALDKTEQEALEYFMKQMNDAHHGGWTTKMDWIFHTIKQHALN", "T1 sequence (P27986 whole entry partner, canonical isoform)": "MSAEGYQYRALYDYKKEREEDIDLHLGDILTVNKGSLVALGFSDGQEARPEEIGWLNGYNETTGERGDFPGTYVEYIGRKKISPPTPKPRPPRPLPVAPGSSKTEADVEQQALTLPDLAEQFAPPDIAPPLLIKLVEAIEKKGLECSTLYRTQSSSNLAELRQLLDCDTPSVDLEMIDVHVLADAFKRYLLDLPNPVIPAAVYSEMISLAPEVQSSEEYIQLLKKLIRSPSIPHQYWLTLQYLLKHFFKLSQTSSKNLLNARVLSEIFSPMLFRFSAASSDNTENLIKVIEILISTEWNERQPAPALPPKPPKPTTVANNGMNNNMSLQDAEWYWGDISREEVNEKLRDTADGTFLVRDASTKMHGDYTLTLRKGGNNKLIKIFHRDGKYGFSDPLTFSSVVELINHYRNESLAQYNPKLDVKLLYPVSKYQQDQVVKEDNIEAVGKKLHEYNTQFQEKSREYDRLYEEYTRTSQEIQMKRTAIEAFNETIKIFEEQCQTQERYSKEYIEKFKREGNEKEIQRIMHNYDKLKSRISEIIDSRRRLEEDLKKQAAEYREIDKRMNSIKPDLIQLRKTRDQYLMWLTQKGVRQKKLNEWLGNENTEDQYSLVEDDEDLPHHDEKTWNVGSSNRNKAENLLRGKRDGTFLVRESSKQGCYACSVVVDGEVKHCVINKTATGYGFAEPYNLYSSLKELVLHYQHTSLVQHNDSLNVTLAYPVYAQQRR", "experiment": "HTRF PI3K biochemical assay, alpha isoform", "settings": "ratio PI3K-alpha IC50 value / PI3K-delta IC50 value"}, "[2]": {"target": "T2, PI3K-delta (Homo sapiens, UniProt O00329)", "T2 construct": "purchased Upstate; Millipore 14-604", "T2 sequence (O00329 whole entry, canonical isoform)": "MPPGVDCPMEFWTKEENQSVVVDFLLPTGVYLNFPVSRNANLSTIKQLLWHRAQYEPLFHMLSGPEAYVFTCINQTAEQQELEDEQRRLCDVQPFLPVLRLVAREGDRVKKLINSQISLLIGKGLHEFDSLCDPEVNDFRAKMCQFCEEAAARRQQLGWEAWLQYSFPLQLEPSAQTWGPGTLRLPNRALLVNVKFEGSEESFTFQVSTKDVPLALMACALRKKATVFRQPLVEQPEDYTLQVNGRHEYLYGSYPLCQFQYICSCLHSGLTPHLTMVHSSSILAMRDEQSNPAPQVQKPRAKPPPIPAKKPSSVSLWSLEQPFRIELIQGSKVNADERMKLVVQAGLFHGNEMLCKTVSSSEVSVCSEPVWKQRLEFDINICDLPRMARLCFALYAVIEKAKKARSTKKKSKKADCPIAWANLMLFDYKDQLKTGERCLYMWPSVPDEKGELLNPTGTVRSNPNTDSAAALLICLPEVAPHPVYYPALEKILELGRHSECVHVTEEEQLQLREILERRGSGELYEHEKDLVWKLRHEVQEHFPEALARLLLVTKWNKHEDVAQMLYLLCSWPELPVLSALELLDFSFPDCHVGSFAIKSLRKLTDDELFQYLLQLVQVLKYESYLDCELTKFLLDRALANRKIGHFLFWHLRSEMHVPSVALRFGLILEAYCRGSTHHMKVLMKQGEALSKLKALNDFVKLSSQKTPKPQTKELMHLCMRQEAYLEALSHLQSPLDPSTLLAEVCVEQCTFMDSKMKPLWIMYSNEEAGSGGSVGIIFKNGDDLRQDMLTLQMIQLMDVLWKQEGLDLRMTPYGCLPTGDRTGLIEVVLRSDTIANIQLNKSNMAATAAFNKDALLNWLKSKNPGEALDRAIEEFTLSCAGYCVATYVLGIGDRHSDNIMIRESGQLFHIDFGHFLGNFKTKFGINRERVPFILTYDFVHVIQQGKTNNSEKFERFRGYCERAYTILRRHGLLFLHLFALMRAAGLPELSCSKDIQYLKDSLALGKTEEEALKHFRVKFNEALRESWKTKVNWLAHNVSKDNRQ", "T2 sequence (P27986 whole entry partner, canonical isoform)": "as the sequence (P27986 whole entry partner, canonical isoform) above", "experiment": "HTRF PI3K biochemical assay, delta isoform", "settings": "form screened (neutral or TFA salt) given, read-out: PI3Kdelta IC50"}},
  "data": [
    {"smiles": "CCn1c(-c2cnc(C)nc2)nc2c(N[C@H]3CCN(C(=O)C4CCCCN4)C3)ncnc21", "note": "(mixture of isomers) [Compound 2-83, 9-ethyl-8-(2-methylpyrimidin-5-yl)-N-[(3S)-1-((R and S)-piperidin-2-ylcarbonyl)pyrrolidin-3-yl]-9H-purin-6-amine]", "values": [
      {"measurement": "Selectivity versus PI3Kalpha", "setting": "[1]", "result": ">10"},
      {"measurement": "IC50", "setting": "[2]", "result": 19, "unit": "nM"}
    ]},
    {"smiles": "CCn1c(C(=O)N[C@@H](C)C2CC2)nc2c(N[C@H]3CCN(C(=O)C4CC4)C3)ncnc21", "note": "[Compound 6-12, 6-{[(3S)-1-(cyclopropylcarbonyl)pyrrolidin-3-yl]amino}-N-[(1S)-1-cyclopropylethyl]-9-ethyl-9H-purine-8-carboxamide]", "values": [
      {"measurement": "Selectivity versus PI3Kalpha", "setting": "[1]", "result": ">10"},
      {"measurement": "IC50", "setting": "[2]", "result": 25, "unit": "nM"}
    ]},
    {"smiles": "CCn1c(-c2cnc3c(cnn3C)c2)nc2c(N[C@H]3CCN(C(=O)C4CC4)C3)ncnc21", "note": "[Compound 3-35, N-[(3S)-1-(cyclopropylcarbonyl)pyrrolidin-3-yl]-9-ethyl-8-(1-methyl-1H-pyrazolo[3,4-b]pyridin-5-yl)-9H-purin-6-amine]", "values": [
      {"measurement": "Selectivity versus PI3Kalpha", "setting": "[1]", "result": ">10"},
      {"measurement": "IC50", "setting": "[2]", "result": "< 1", "unit": "nM"}
    ]},
    {"smiles": "CCn1c(C(F)F)nc2c(N[C@H]3CCN(C(=O)C4CC45CCCC5)C3)ncnc21", "note": "(single isomer, unassigned) [Compound 7-21, (S or R)-8-(difluoromethyl)-9-ethyl-N-[(3S)-1-(spiro[2.4]hept-1-ylcarbonyl)pyrrolidin-3-yl]-9H-purin-6-amine]", "values": [
      {"measurement": "Selectivity versus PI3Kalpha", "setting": "[1]", "result": ">10"},
      {"measurement": "IC50", "setting": "[2]", "result": 2.4, "unit": "nM"}
    ]},
    {"smiles": "CCn1c(-c2cnc(C)nc2)nc2c(N[C@H]3C[C@H](C(=O)O)N(C(=O)C4CC4)C3)ncnc21", "note": "[Compound 15-1, (4S)-1-(cyclopropylcarbonyl)-4-{[9-ethyl-8-(2-methylpyrimidin-5-yl)-9H-purin-6-yl]amino}-D-proline]", "values": [
      {"measurement": "Selectivity versus PI3Kalpha", "setting": "[1]", "result": ">10"},
      {"measurement": "IC50", "setting": "[2]", "result": 2.5, "unit": "nM"}
    ]},
    {"smiles": "CCn1ncc(-c2nc3c(N[C@H]4CCN(C(=O)C5CCOC(C)(C)C5)C4)ncnc3n2C)c1C", "note": "(stereo partly drawn) [Compound 2-6, N-{(3S)-1-[(2,2-dimethyltetrahydro-2H-pyran-4-yl)carbonyl]pyrrolidin-3-yl}-8-(1-ethyl-5-methyl-1H-pyrazol-4-yl)-9-methyl-9H-purin-6-amine]", "values": [
      {"measurement": "Selectivity versus PI3Kalpha", "setting": "[1]", "result": ">10"},
      {"measurement": "IC50", "setting": "[2]", "result": 1.6, "unit": "nM"}
    ]},
    {"smiles": "CCn1c(-c2cnc(C)nc2)nc2c(N[C@H]3CCN(C(=O)[C@@H]4C[C@H]4C)C3)ncnc21", "note": "[Compound 2-92, 9-ethyl-N-[(3S)-1-{[(1R,2R)-2-methylcyclopropyl]carbonyl}pyrrolidin-3-yl]-8-(2-methylpyrimidin-5-yl)-9H-purin-6-amine]", "values": [
      {"measurement": "Selectivity versus PI3Kalpha", "setting": "[1]", "result": ">10"},
      {"measurement": "IC50", "setting": "[2]", "result": "< 1", "unit": "nM"}
    ]},
    {"smiles": "CCC(=O)N1CC[C@H](Nc2ncnc3c2nc(C2CC2)n3C)C1", "note": "[Compound 7-9, 8-cyclopropyl-9-methyl-N-[(3S)-1-propanoylpyrrolidin-3-yl]-9H-purin-6-amine]", "values": [
      {"measurement": "Selectivity versus PI3Kalpha", "setting": "[1]", "result": ">10"},
      {"measurement": "IC50", "setting": "[2]", "result": 98, "unit": "nM"}
    ]},
    {"smiles": "CCC(=O)N1CC[C@H](Nc2ncnc3c2nc(-c2cnc(C)nc2)n3C)C1", "note": "[Compound 3-15, 9-methyl-8-(2-methylpyrimidin-5-yl)-N-[(3S)-1-propanoylpyrrolidin-3-yl]-9H-purin-6-amine]", "values": [
      {"measurement": "Selectivity versus PI3Kalpha", "setting": "[1]", "result": ">10"},
      {"measurement": "IC50", "setting": "[2]", "result": 4.3, "unit": "nM"}
    ]},
    {"smiles": "CCn1c(-c2cnc(C)nc2)nc2c(N[C@H]3CCN(C(=O)C4CC45CCCC5)C3)ncnc21", "note": "(single isomer, unassigned) [Compound 2-34, 9-ethyl-8-(2-methylpyrimidin-5-yl)-N-[(3S)-1-((R or S)-spiro[2.4]hept-1-ylcarbonyl)pyrrolidin-3-yl]-9H-purin-6-amine]", "values": [
      {"measurement": "Selectivity versus PI3Kalpha", "setting": "[1]", "result": ">10"},
      {"measurement": "IC50", "setting": "[2]", "result": 11, "unit": "nM"}
    ]},
    {"smiles": "CCn1c(-c2cnc(C)nc2)nc2c(N[C@H]3C[C@H](C(=O)OC)N(C(=O)OC(C)(C)C)C3)ncnc21", "note": "[Compound 1-17, 1-tert-butyl 2-methyl (2R,4S)-4-{[9-ethyl-8-(2-methylpyrimidin-5-yl)-9H-purin-6-yl]amino}pyrrolidine-1,2-dicarboxylate]", "values": [
      {"measurement": "Selectivity versus PI3Kalpha", "setting": "[1]", "result": ">10"},
      {"measurement": "IC50", "setting": "[2]", "result": 8.8, "unit": "nM"}
    ]},
    {"smiles": "CCn1c(-c2cnc(C)nc2)nc2c(N[C@H]3CCN(C(=O)c4cocn4)C3)ncnc21", "note": "[Compound 2-72, 9-ethyl-8-(2-methylpyrimidin-5-yl)-N-[(3S)-1-(1,3-oxazol-4-ylcarbonyl)pyrrolidin-3-yl]-9H-purin-6-amine]", "values": [
      {"measurement": "Selectivity versus PI3Kalpha", "setting": "[1]", "result": ">10"},
      {"measurement": "IC50", "setting": "[2]", "result": 2.8, "unit": "nM"}
    ]},
    {"smiles": "CCn1c(C(=O)Nc2cccnc2)nc2c(N[C@H]3CCN(C(=O)C4CC4)C3)ncnc21", "note": "[Compound 6-21, 6-{[(3S)-1-(cyclopropylcarbonyl)pyrrolidin-3-yl]amino}-9-ethyl-N-pyridin-3-yl-9H-purine-8-carboxamide]", "values": [
      {"measurement": "Selectivity versus PI3Kalpha", "setting": "[1]", "result": ">10"},
      {"measurement": "IC50", "setting": "[2]", "result": 17, "unit": "nM"}
    ]},
    {"smiles": "CCn1c(-c2cnc(C)nc2)nc2c(N[C@H]3C[C@H](C(=O)OC)N(c4ccccn4)C3)ncnc21", "note": "[Compound 4-12, methyl (4S)-4-{[9-ethyl-8-(2-methylpyrimidin-5-yl)-9H-purin-6-yl]amino}-1-pyridin-2-yl-D-prolinate]", "values": [
      {"measurement": "Selectivity versus PI3Kalpha", "setting": "[1]", "result": ">10"},
      {"measurement": "IC50", "setting": "[2]", "result": 8.2, "unit": "nM"}
    ]},
    {"smiles": "CCn1ncc(-c2nc3c(N[C@H]4CCCN(S(=O)(=O)CC)C4)ncnc3n2C)c1C", "note": "[Compound 11-1, 8-(1-ethyl-5-methyl-1H-pyrazol-4-yl)-N-[(3S)-1-(ethylsulfonyl)piperidin-3-yl]-9-methyl-9H-purin-6-amine]", "values": [
      {"measurement": "Selectivity versus PI3Kalpha", "setting": "[1]", "result": ">10"},
      {"measurement": "IC50", "setting": "[2]", "result": 7.4, "unit": "nM"}
    ]},
    {"smiles": "CCn1c(-c2cncc(-c3ccccc3)c2)nc2c(N[C@H]3CCN(C(=O)C4CC4)C3)ncnc21", "note": "[Compound 3-37, N-[(3S)-1-(cyclopropylcarbonyl)pyrrolidin-3-yl]-9-ethyl-8-(5-phenylpyridin-3-yl)-9H-purin-6-amine]", "values": [
      {"measurement": "Selectivity versus PI3Kalpha", "setting": "[1]", "result": ">10"},
      {"measurement": "IC50", "setting": "[2]", "result": 5.4, "unit": "nM"}
    ]},
    {"smiles": "CCC(=O)N1CC[C@H](Nc2ncnc3c2nc(-c2ccc(OC)c(F)c2)n3C)C1", "note": "[Compound 3-10, 8-(3-fluoro-4-methoxyphenyl)-9-methyl-N-[(3S)-1-propanoylpyrrolidin-3-yl]-9H-purin-6-amine]", "values": [
      {"measurement": "Selectivity versus PI3Kalpha", "setting": "[1]", "result": ">10"},
      {"measurement": "IC50", "setting": "[2]", "result": 1.8, "unit": "nM"}
    ]},
    {"smiles": "CCC(=O)N1CC[C@H](Nc2ncnc3c2nc(-c2cc(O)cc(F)c2)n3C)C1", "note": "[Compound 3-9, 3-fluoro-5-(9-methyl-6-{[(3S)-1-propanoylpyrrolidin-3-yl]amino}-9H-purin-8-yl)phenol]", "values": [
      {"measurement": "Selectivity versus PI3Kalpha", "setting": "[1]", "result": ">10"},
      {"measurement": "IC50", "setting": "[2]", "result": 1.3, "unit": "nM"}
    ]},
    {"smiles": "CCn1c(-c2cnc(C)nc2)nc2c(N[C@H]3CCN(C(=O)N4CCC4)C3)ncnc21", "note": "[Compound 12-9, N-[(3S)-1-(azetidin-1-ylcarbonyl)pyrrolidin-3-yl]-9-ethyl-8-(2-methylpyrimidin-5-yl)-9H-purin-6-amine]", "values": [
      {"measurement": "Selectivity versus PI3Kalpha", "setting": "[1]", "result": ">10"},
      {"measurement": "IC50", "setting": "[2]", "result": 1.4, "unit": "nM"}
    ]},
    {"smiles": "CCn1c(-c2cnc(C)nc2)nc2c(N[C@H]3CC[C@@H](C(=O)N(C)C4CC4)C3)ncnc21", "note": "[Compound 5-5, (1R,3S)-N-cyclopropyl-3-{[9-ethyl-8-(2-methylpyrimidin-5-yl)-9H-purin-6-yl]amino}-N-methylcyclopentanecarboxamide]", "values": [
      {"measurement": "Selectivity versus PI3Kalpha", "setting": "[1]", "result": ">10"},
      {"measurement": "IC50", "setting": "[2]", "result": 3.7, "unit": "nM"}
    ]},
    {"smiles": "CCn1c(-c2cnc(C)nc2)nc2c(N[C@H]3CCN(C(=O)NC4CCCCC4)C3)ncnc21", "note": "[Compound 12-16, (3S)-N-cyclohexyl-3-{[9-ethyl-8-(2-methylpyrimidin-5-yl)-9H-purin-6-yl]amino}pyrrolidine-1-carboxamide]", "values": [
      {"measurement": "Selectivity versus PI3Kalpha", "setting": "[1]", "result": ">10"},
      {"measurement": "IC50", "setting": "[2]", "result": 16, "unit": "nM"}
    ]}
  ]
}
